The values that follow are results of earlier work, collected in patent US20020111657A1, “Method of controlling body temperature while reducing shivering” (priority 2001, published 2002).

The data set relates to shivering threshold. Conditions: patients at normal temperature warmed until sweating then cooled until shivering; Talke, et al., Anesthesiology 87(4):835-841, 1997.

As to `Clc1cccc(Cl)c1N=C1NCCN1` [clonidine], the “effect on shivering threshold” value is “able to lower the shivering threshold”. In the case of `Cc1cccc([C@H](C)c2cnc[nH]2)c1C` [dexmedetomidine], the “effect on shivering threshold” value is “able to lower the shivering threshold”.
